# Laboratory results from BindingDB's records for doi:10.1016/j.bmcl.2004.09.023 (Dupont Pharmaceuticals, 2004).
# pIC50: −log10 of the molar value.
# What was measured:
# [1] = molecular target: Cyclin-dependent kinase 4/G1/S-specific cyclin-D1 (Homo sapiens, UniProt P11802); test: Kinase Inhibition Assay
# Experimental: (§1) The enzyme was assayed with substrate GST-Rb in the presence of 50 mM ATP/[gamma-32P] ATP, and capturing the 32-P labeled reaction products on GSH-Sepharose beads. […] Use of 32P-labeled ATP allows this transfer to be monitored by scintillation counting.
# [2] = molecular target: Cyclin-dependent kinase 2/G1/S-specific cyclin-E1 (Homo sapiens, UniProt P24941); test: Kinase Inhibition Assay
# Experimental: as §1
# Chain of Cyclin-dependent kinase 4/G1/S-specific cyclin-D1 (P11802 whole entry): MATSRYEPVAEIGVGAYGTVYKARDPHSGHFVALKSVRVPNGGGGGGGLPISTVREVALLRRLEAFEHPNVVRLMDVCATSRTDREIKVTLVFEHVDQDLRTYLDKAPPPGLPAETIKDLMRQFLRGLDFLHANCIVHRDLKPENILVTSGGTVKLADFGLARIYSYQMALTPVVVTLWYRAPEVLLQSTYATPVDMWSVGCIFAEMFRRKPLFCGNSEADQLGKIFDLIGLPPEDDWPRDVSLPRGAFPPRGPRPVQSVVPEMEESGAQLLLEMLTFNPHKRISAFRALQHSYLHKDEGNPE
# Chain of Cyclin-dependent kinase 4/G1/S-specific cyclin-D1 (P24385 whole entry, further chain): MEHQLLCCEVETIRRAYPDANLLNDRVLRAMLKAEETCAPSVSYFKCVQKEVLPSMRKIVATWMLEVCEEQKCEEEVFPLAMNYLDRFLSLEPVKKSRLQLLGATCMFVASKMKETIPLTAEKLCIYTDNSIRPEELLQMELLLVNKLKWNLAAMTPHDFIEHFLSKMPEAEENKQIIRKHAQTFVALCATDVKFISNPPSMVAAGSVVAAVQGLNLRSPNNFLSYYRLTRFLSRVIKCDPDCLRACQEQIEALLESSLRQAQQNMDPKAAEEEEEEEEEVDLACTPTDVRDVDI
pIC50 [1],pIC50 [2],"pIC50 ([2]; pH 7.6, 22 °C)",Structure (SMILES)
7.92,7.80,,"COc1ccc(-c2[nH]nc3c2C(=O)c2c(NC(=O)NNC(=O)c4ccc(O)cc4O)cccc2-3)cc1 [2,4-dihydroxy-N-({[3-(4-methoxyphenyl)-4-oxo-2H,4H-indeno[1,2-c]pyrazol-5-yl]carbamoyl}amino)benzamide]"
7.55,,7.44,"COc1ccc(-c2[nH]nc3c2C(=O)c2c(NC(=O)NNC(=O)c4cc(Cl)ccc4Cl)cccc2-3)cc1 [2,5-dichloro-N-({[3-(4-methoxyphenyl)-4-oxo-2H,4H-indeno[1,2-c]pyrazol-5-yl]carbamoyl}amino)benzamide]"
,,7.85,"COc1ccc(-c2[nH]nc3c2C(=O)c2c(NC(=O)NNC(=O)c4ccccc4OC)cccc2-3)cc1 [2-methoxy-N-({[3-(4-methoxyphenyl)-4-oxo-2H,4H-indeno[1,2-c]pyrazol-5-yl]carbamoyl}amino)benzamide]"
7.80,,7.41,"COc1ccc(-c2[nH]nc3c2C(=O)c2c(NC(=O)NNC(=O)c4cc(N)cc(N)c4)cccc2-3)cc1 [3,5-diamino-N-({[3-(4-methoxyphenyl)-4-oxo-2H,4H-indeno[1,2-c]pyrazol-5-yl]carbamoyl}amino)benzamide]"
7.62,,,"COc1ccc(-c2[nH]nc3c2C(=O)c2c(NC(=O)NNC(=O)c4cc(OC)cc(OC)c4)cccc2-3)cc1 [3,5-dimethoxy-N-({[3-(4-methoxyphenyl)-4-oxo-2H,4H-indeno[1,2-c]pyrazol-5-yl]carbamoyl}amino)benzamide]"
,,7.89,"COc1ccc(-c2[nH]nc3c2C(=O)c2c(NC(=O)NNC(=O)CCc4ccc(O)cc4)cccc2-3)cc1 [3-(4-hydroxyphenyl)-N-({[3-(4-methoxyphenyl)-4-oxo-2H,4H-indeno[1,2-c]pyrazol-5-yl]carbamoyl}amino)propanamide]"
,,7.72,"COc1ccc(-c2[nH]nc3c2C(=O)c2c(NC(=O)NNC(=O)Nc4ccccc4)cccc2-3)cc1 [3-[3-(4-methoxyphenyl)-4-oxo-2H,4H-indeno[1,2-c]pyrazol-5-yl]-1-[(phenylcarbamoyl)amino]urea]"
,,7.62,"COc1ccc(-c2[nH]nc3c2C(=O)c2c(NC(=O)NNC(=O)c4ccc(O)c(N)c4)cccc2-3)cc1 [3-amino-4-hydroxy-N-({[3-(4-methoxyphenyl)-4-oxo-2H,4H-indeno[1,2-c]pyrazol-5-yl]carbamoyl}amino)benzamide]"
,7.89,,"COc1ccc(-c2[nH]nc3c2C(=O)c2c(NC(=O)NNC(=O)c4cccc(N)c4)cccc2-3)cc1 [3-amino-N-({[3-(4-methoxyphenyl)-4-oxo-2H,4H-indeno[1,2-c]pyrazol-5-yl]carbamoyl}amino)benzamide]"
7.96,,7.82,"COc1ccc(C(=O)NNC(=O)Nc2cccc3c2C(=O)c2c(-c4ccc(OC)cc4)n[nH]c2-3)cc1 [4-methoxy-N-({[3-(4-methoxyphenyl)-4-oxo-2H,4H-indeno[1,2-c]pyrazol-5-yl]carbamoyl}amino)benzamide]"
,,7.72,"COc1ccc(-c2[nH]nc3c2C(=O)c2c(NC(=O)NNC(=O)C(C)C)cccc2-3)cc1 [N-({[3-(4-methoxyphenyl)-4-oxo-2H,4H-indeno[1,2-c]pyrazol-5-yl]carbamoyl}amino)-2-methylpropanamide]"
7.57,7.48,,"COc1ccc(-c2[nH]nc3c2C(=O)c2c(NC(=O)NNC(=O)Cc4ccccc4)cccc2-3)cc1 [N-({[3-(4-methoxyphenyl)-4-oxo-2H,4H-indeno[1,2-c]pyrazol-5-yl]carbamoyl}amino)-2-phenylacetamide]"
,,7.89,"COc1ccc(-c2[nH]nc3c2C(=O)c2c(NC(=O)NNC(=O)c4cccc(C)c4)cccc2-3)cc1 [N-({[3-(4-methoxyphenyl)-4-oxo-2H,4H-indeno[1,2-c]pyrazol-5-yl]carbamoyl}amino)-3-methylbenzamide]"
,,7.62,"COc1ccc(-c2[nH]nc3c2C(=O)c2c(NC(=O)NNC(=O)c4cccc([N+](=O)[O-])c4)cccc2-3)cc1 [N-({[3-(4-methoxyphenyl)-4-oxo-2H,4H-indeno[1,2-c]pyrazol-5-yl]carbamoyl}amino)-3-nitrobenzamide]"
,,7.62,"COc1ccc(-c2[nH]nc3c2C(=O)c2c(NC(=O)NNC(=O)c4ccc(C)cc4)cccc2-3)cc1 [N-({[3-(4-methoxyphenyl)-4-oxo-2H,4H-indeno[1,2-c]pyrazol-5-yl]carbamoyl}amino)-4-methylbenzamide]"
7.24,7.43,,"COc1ccc(-c2[nH]nc3c2C(=O)c2c(NC(=O)NNC(C)=O)cccc2-3)cc1 [N-({[3-(4-methoxyphenyl)-4-oxo-2H,4H-indeno[1,2-c]pyrazol-5-yl]carbamoyl}amino)acetamide]"
,7.92,,"COc1ccc(-c2[nH]nc3c2C(=O)c2c(NC(=O)NNC(=O)c4ccccc4)cccc2-3)cc1 [N-({[3-(4-methoxyphenyl)-4-oxo-2H,4H-indeno[1,2-c]pyrazol-5-yl]carbamoyl}amino)benzamide]"
,7.01,,"COc1ccc(-c2[nH]nc3c2C(=O)c2c(NC(=O)NNC(=O)C(N)=O)cccc2-3)cc1 [N-({[3-(4-methoxyphenyl)-4-oxo-2H,4H-indeno[1,2-c]pyrazol-5-yl]carbamoyl}amino)ethanediamide]"
,,7.28,"COc1ccc(-c2[nH]nc3c2C(=O)c2c(NC(=O)NNC(=O)c4cccc5ccccc45)cccc2-3)cc1 [N-({[3-(4-methoxyphenyl)-4-oxo-2H,4H-indeno[1,2-c]pyrazol-5-yl]carbamoyl}amino)naphthalene-1-carboxamide]"
7.89,7.46,,"COc1ccc(-c2[nH]nc3c2C(=O)c2c(NC(=O)NNC(=O)c4ccc5ccccc5c4)cccc2-3)cc1 [N-({[3-(4-methoxyphenyl)-4-oxo-2H,4H-indeno[1,2-c]pyrazol-5-yl]carbamoyl}amino)naphthalene-2-carboxamide]"
,7.80,,"COc1ccc(-c2[nH]nc3c2C(=O)c2c(NC(=O)NNC(=O)c4cccnc4)cccc2-3)cc1 [N-({[3-(4-methoxyphenyl)-4-oxo-2H,4H-indeno[1,2-c]pyrazol-5-yl]carbamoyl}amino)pyridine-3-carboxamide]"
,7.92,,"COc1ccc(-c2[nH]nc3c2C(=O)c2c(NC(=O)NNC(=O)c4ccncc4)cccc2-3)cc1 [N-({[3-(4-methoxyphenyl)-4-oxo-2H,4H-indeno[1,2-c]pyrazol-5-yl]carbamoyl}amino)pyridine-4-carboxamide]"
,,7.80,"COC(=O)NNC(=O)Nc1cccc2c1C(=O)c1c-2n[nH]c1-c1ccc(OC)cc1 [methoxy-N-({[3-(4-methoxyphenyl)-4-oxo-2H,4H-indeno[1,2-c]pyrazol-5-yl]carbamoyl}amino)formamide]"
